In patent US8119624B2, “Fused phenyl amido heterocyclic compounds” (Pfizer Inc., priority 2006, dated 2012) one finds activation, EC50 and Emax data, which are given here for 9 molecules.

Read-outs that look alike come from different tables or passages of the source.

The experiment addresses T1, Full-length glucokinase (beta cell isoform) (Homo sapiens, UniProt P35557).
T1 construct: Full-length glucokinase (beta cell isoform) was His-tagged at N-terminus; His tag (N); made in house
T1 sequence (P35557 1-465): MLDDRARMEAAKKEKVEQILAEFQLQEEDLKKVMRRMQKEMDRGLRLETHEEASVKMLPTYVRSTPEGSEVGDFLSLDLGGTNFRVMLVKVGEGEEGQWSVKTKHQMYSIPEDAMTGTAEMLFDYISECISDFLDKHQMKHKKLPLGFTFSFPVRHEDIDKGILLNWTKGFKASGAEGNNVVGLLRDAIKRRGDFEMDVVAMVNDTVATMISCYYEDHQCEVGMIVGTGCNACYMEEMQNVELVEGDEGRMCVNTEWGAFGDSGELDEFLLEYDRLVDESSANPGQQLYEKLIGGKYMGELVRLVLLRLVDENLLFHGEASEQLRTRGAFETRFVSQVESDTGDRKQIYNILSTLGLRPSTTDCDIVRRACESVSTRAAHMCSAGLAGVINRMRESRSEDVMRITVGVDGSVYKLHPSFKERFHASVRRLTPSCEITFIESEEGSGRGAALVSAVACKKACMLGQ
Put plainly: Glucokinase biochemical assay (PK/LDH-coupled, NADH depletion at 340 nm): % activation, EC50, % max activation. The conditions noted are these: 5 mM glucose; for activation at 10 µM: read-out: % Activation at 10 uM; for EC50: read-out: EC50; for Emax: fitted maximum activation, read-out: % Max Activation. Summed up:
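N-terminally His-tagged full-length human beta-cell glucokinase, room temperature, 5 mM glucose, 1 mM ATP, PK/LDH-coupled with 0.7 mM NADH, 1% DMSO final. Initial velocity from the 200–900 s slope of A340 decline. % activation = (Va/Vo−1)×100, measured across compound concentrations.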

[1] abbreviates: 10 uM compound, % Activation=(Va/Vo−1)×100.

`Cn1ccc(NC(=O)c2cc(Oc3ccc(C(=O)Nc4ccn(C)n4)c(F)c3)c3c(c2)OC(C)(C)C3)n1` [Example 65, 4-[3-Fluoro-4-(1-methyl-1H-pyrazol-3-ylcarbamoyl)-phenoxy]-2,2-dimethyl-2,3-dihydro-benzofuran-6-carboxylic acid(1-methyl-1H-pyrazol-3-yl)-amide]: the Emax was 141%. Also, the activation at 10 µM under setting [1] came out at 147%. Moreover, under “GK activation”, the EC50 is 240 nM.
Taken in the same sequence, the figures for `Cn1ccc(NC(=O)c2cc(Oc3ccc(C(=O)N4CCC4)cc3)c3c(c2F)OC(C)(C)C3)n1` [Example 191, 4-[4-(Azetidine-1-carbonyl)-phenoxy]-7-fluoro-2,2-dimethyl-2,3-dihydro-benzofuran-6-carboxylic acid (1-methyl-1H-pyrazol-3-yl)-amide] were 119%, 91.2% and 1700 nM.
Taken in the same sequence, the figures for `CC1Cc2c(Oc3ccc(S(C)(=O)=O)cc3)cc(C(=O)Nc3ccn(C)n3)cc2O1` (centres unmarked) [Example 11, 4-(4-Methanesulfonyl-phenoxy)-2-methyl-2,3-dihydro-benzofuran-6-carboxylic acid(1-methyl-1H-pyrazol-3-yl)-amide] were 177%, 158% and 2000 nM.
For the molecule `Cc1cc2c(OC3CN(S(C)(=O)=O)C3)cc(C(=O)Nc3ccn(C)n3)cc2o1` [Example 327, 2-Methyl-N-(1-methyl-1H-pyrazol-3-yl)-4-{[1-(methylsulfonyl)-azetidin-3-yl]oxy}-1-benzofuran-6-carboxamide], the activation at 10 µM under setting [1] came out at 108%. Moreover, where the note is “GK activation”, the EC50 is greater than 10000 nM.
Take `Cn1ccc(NC(=O)c2cc(Oc3ccc(C(=O)NC4CC4)c(F)c3)c3c(c2)OC(C)(C)C3)n1` [Example 73, 4-(4-Cyclopropylcarbamoyl-3-fluoro-phenoxy)-2,2-dimethyl-2,3-dihydro-benzofuran-6-carboxylic acid(1-methyl-1H-pyrazol-3-yl)-amide]: the Emax amounted to 232%. Further, the activation at 10 µM under setting [1] is 254%. In addition, the 50% effective concentration (EC50) (GK activation) is 390 nM.
Taken in the same sequence, the figures for `Cn1ccc(NC(=O)c2cc(Oc3ccc(S(C)(=O)=O)cc3F)c3c(c2)OC(C)(C)C3)n1` [Example 121, 4-(2-Fluoro-4-methanesulfonyl-phenoxy)-2,2-dimethyl-2,3-dihydro-benzofuran-6-carboxylic acid (1-methyl-1H-pyrazol-3-yl)-amide] were 152%, 124% and 500 nM.
`Cn1ccc(NC(=O)c2cc(Oc3cnc(C(=O)N4CCC4)cn3)c3c(c2)OC(C)(C)C3)n1` [Example 396, 4-[5-(Azetidine-1-carbonyl)-pyrazin-2-yloxy]-2,2-dimethyl-2,3-dihydro-benzofuran-6-carboxylic acid(1-methyl-1H-pyrazol-3-yl)-amide]: the EC50 (1 mM ATP, room temperature) turned out to be 360 nM. Also, the activation at 10 µM (compound at 10 uM, 1 mM ATP, room temperature) came out at 204%. Besides, under “1 mM ATP”, the Emax was 212%.
Consider `Cn1ccc(NC(=O)c2cc(Oc3ccc(S(=O)(=O)N4CCC4)cc3)c3c(c2)OC(C)(C)C3)n1` [Example 125, 4-[4-(Azetidine-1-sulfonyl)-phenoxy]-2,2-dimethyl-2,3-dihydro-benzofuran-6-carboxylic acid (1-methyl-1H-pyrazol-3-yl)-amide], for which the Emax came out at 162%. For the same molecule, the activation at 10 µM under setting [1] was 181%. For the same molecule, the EC50 (GK activation) amounted to 46 nM.
The matching figures for `CN(C)Cc1ccc(Oc2cc(C(=O)Nc3ccn(C)n3)cc3c2CC(C)(C)O3)c(F)c1` [Example 39, 4-(4-Dimethylaminomethyl-2-fluoro-phenoxy)-2,2-dimethyl-2,3-dihydro-benzofuran-6-carboxylic acid(1-methyl-1H-pyrazol-3-yl)-amide]: 133%, 105% and 2000 nM.

Broadly, the EC50 is the concentration needed to bring the measured effect to its halfway point.
